The target in one test is ELAV-like protein 1 (Homo sapiens, UniProt Q15717). Briefly: Identify HuR specific inhibitors. The test is classed as functional.
Test [1] can be described thus: HIV-1 Env-mediated cell fusion inhibitors, dose response, CCR5-tropic Env (AID 2279). The format is functional.
The target of test [2] is T1, Probable nicotinate-nucleotide adenylyltransferase (Staphylococcus aureus (strain N315), UniProt P65502). The format is functional, Staphylococcus aureus subsp. aureus N315. The following applies: read-out: IC50_Mean.
Test [3] addresses T1, Probable nicotinate-nucleotide adenylyltransferase. The test is classed as functional, Staphylococcus aureus subsp. aureus N315.
The target in test [4] is Envelope glycoprotein gp160 (Human immunodeficiency virus 1, UniProt Q6QLK5). Briefly: inhibitors of HIV fusion peptide binding, primary screen, biochemical, uHTS, fluorescence dequenching (AID 1986).
A short description of test [5]: cells. The format is functional, cell-based.
Test [6] has as its target Potassium voltage-gated channel subfamily KQT member 2 (Rattus norvegicus, UniProt O88943). Briefly: retigabine-insensitive KCNQ2 potentiators, concentration-response, dose response, cell-based, retigabine-insensitive compounds (AID 2654). The test is classed as functional.
Test [7] in a line: cells. The test is classed as functional, cell-based. The source holds these as a separate data set.
Test [8] concerns the target T2, Trace amine-associated receptor 1 (Homo sapiens, UniProt Q96RJ0).
T2 sequence (Q96RJ0 whole entry): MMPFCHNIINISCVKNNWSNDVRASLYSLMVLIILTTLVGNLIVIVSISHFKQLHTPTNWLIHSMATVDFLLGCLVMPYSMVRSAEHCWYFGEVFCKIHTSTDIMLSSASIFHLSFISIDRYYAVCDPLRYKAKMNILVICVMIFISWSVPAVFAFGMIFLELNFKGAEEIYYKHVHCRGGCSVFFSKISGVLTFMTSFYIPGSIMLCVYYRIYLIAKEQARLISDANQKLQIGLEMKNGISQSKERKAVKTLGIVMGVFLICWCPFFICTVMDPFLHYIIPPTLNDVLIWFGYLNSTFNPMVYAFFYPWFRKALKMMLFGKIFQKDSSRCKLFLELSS
Kind of test: Counterscreen for agonists of the human trace amine associated receptor 1 (hTAAR1): Fluorescence-based cell-based high throughput dose response assay to identify hTAAR1 agonist that also desensitize TAAR1 receptor response. The format is functional. Background: A counterscreen serves to expose hits that act by an unwanted route or on another target.

Test [9] addresses T2, Trace amine-associated receptor 1. Briefly: Fluorescence-based cell-based high throughput dose response assay to identify agonists of the human trace amine associated receptor 1 (TAAR1). The format is functional.
Test [10] deals with T3, Heat shock factor protein 1 (Mus musculus, UniProt P38532).
T3 sequence (P38532 whole entry): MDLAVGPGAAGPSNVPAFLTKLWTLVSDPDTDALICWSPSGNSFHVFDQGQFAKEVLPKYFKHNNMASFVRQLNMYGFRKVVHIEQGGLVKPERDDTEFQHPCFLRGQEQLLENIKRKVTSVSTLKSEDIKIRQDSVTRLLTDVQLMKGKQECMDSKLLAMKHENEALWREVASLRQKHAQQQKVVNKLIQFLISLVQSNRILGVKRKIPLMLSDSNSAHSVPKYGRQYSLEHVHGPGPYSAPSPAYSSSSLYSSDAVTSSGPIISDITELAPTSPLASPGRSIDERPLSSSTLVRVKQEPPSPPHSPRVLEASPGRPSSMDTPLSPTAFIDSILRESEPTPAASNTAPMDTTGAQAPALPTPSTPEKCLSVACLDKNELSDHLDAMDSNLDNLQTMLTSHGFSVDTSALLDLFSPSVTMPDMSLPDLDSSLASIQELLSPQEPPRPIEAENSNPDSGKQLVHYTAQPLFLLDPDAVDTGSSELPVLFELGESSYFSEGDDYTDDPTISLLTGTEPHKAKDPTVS
Kind of test: HSF1 potentiators in luciferase reporter cells, confirmation, cell-based, NIH3T3, luminescence, dose retest (AID 435004).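 Note: stress induced by proteasome inhibitor MG132 added 30 min after compound; luciferase reporter driven by HSF1 response element in NIH3T3 cells; actives raise luminescence as potentiators of the MG132 stress response.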 The format is functional.

Test [11] has as its target T4, SUMO-activating enzyme (Homo sapiens, UniProt Q9UBT2). Kind of test: SUMOylation inhibitor hit validation, confirmation, SUMOylation inhibitor project, biochemical, AlphaScreen (AID 2018). The test is classed as functional.
In test [12] the target is T4, SUMO-activating enzyme. Kind of test: inhibitors of in vitro SUMOylation cascade, primary screen, biochemical, HTRF, uHTS (AID 2006). The test is classed as protein-complex assay. For orientation: Time-resolved FRET reads energy transfer from a long-lived donor to a nearby acceptor.
In test [13] the target is DNA damage-inducible transcript 3 protein (Mus musculus, UniProt P35639). The format is functional, Cricetulus griseus.
For the next test, the target named is X-box-binding protein 1 (Homo sapiens, UniProt P17861). The test is classed as functional, Cricetulus griseus.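 Note: confirmatory dose-response counter-screen serving a CHOP assay.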
For test [14], the system named is HEK293. Briefly: NOD2 signaling inhibitors in MDP-stimulated cells, cell-based, uHTS, luminescence (AID 2001). The test is classed as functional. The conditions noted are these: Homo sapiens.
The test system of a further test is Streptococcus. Kind of test: Group A Streptococcus viability loss, dose response, counter-screen for streptokinase expression inhibitor project, luminescence, BacTiterGlo (AID 1915).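 Note: potency for reduction of bacterial viability or growth.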 The format is functional, organism-based.
The subject of test [15] is Streptococcus sp. 'group A'. Briefly: growth inhibition of control SK(-) GAS strain, dose response, counter-screen for streptokinase expression inhibitor project, luminescence, kanamycin, BacTiterGlo, confirmation (AID 1900). The format is functional, organism-based.
Test [16] addresses T5, Nucleotide-binding oligomerization domain-containing protein 2 (Homo sapiens, UniProt Q9HC29). Briefly: NOD2 signaling inhibitors, cell-based, luminescence, uHTS, HEK293 (AID 1566). The test is classed as functional.
Test [17] deals with HEK293. Briefly: cells. The test is classed as functional, cell-based. The following applies: Homo sapiens.
Test [18] relates to HEK293. Kind of test: NOD1 signaling inhibitors, primary screen, cell-based, luminescence, uHTS (AID 1578). The conditions noted are these: Homo sapiens. The format is functional.
For test [19], the system named is HEK293. Kind of test: cells. The following applies: Homo sapiens.
The target in test [20] is T5, Nucleotide-binding oligomerization domain-containing protein 2. Briefly: PubChem AID 2334. The test is classed as functional.
In test [21] the target is T6, Nucleotide-binding oligomerization domain-containing protein 1 (Homo sapiens, UniProt Q9Y239).
T6 sequence (Q9Y239 whole entry): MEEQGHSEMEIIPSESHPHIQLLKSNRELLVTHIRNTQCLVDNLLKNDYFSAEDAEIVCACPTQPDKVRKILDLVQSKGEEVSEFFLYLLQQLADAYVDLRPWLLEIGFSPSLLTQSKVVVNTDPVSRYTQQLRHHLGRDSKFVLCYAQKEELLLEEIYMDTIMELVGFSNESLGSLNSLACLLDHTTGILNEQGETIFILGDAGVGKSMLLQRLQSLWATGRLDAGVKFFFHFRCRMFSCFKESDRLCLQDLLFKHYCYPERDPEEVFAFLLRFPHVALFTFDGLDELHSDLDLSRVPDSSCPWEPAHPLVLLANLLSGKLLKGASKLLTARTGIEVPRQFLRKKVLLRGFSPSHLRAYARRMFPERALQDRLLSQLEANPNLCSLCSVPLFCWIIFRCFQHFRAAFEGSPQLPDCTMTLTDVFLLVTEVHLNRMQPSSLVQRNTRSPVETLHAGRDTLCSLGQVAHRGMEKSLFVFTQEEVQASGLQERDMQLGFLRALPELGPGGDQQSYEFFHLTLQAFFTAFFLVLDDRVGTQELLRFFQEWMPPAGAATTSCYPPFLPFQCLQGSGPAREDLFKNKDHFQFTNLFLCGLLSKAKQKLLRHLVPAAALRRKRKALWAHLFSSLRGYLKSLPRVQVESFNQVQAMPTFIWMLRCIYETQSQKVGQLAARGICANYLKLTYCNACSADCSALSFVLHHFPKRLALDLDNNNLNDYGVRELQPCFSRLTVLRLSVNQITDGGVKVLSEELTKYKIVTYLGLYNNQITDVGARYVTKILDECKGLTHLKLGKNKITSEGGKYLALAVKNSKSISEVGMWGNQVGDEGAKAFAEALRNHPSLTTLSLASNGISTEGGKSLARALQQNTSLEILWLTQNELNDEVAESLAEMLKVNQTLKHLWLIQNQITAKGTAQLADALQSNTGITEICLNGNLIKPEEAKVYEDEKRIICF
Briefly: NOD1 signaling inhibitors, SAR follow-up, revised (AID 2333). The format is functional.

The next test concerns the target Tumor necrosis factor (Homo sapiens, UniProt P01375). Briefly: TNFa-triggered NF-kB activation inhibitors, SAR follow-up, cell-based, revised (AID 2337). The format is functional.
Test [22] concerns HEK293. Briefly: cells. The test is classed as functional, cell-based. The conditions noted are these: Homo sapiens. The source holds these as a separate data set.
In test [23] the test system is HEK293. Briefly: cells. The format is functional, cell-based. The conditions noted are these: Homo sapiens. The source holds these as a separate data set.
The target of test [24] is T7, Tyrosine-protein phosphatase non-receptor type 7 (Homo sapiens, UniProt P35236).
T7 sequence (P35236 whole entry): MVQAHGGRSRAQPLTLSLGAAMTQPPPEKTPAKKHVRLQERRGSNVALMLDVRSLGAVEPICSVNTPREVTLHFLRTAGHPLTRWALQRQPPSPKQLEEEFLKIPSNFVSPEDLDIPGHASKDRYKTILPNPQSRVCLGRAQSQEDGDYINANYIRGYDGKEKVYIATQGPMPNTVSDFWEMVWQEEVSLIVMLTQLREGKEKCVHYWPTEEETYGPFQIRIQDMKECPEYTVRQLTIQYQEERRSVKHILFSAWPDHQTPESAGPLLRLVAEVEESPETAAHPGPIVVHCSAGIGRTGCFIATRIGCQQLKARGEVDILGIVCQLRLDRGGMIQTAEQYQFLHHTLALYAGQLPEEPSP
Kind of test: redox-dependent HePTP inhibition, mechanism study, biochemical, fluorescence (AID 2068). The format is functional.

Test [25] concerns the target Delta-type opioid receptor (Homo sapiens, UniProt P41143). Briefly: SAR Analysis of Antagonists of the DOR Receptor using an Image-Based Assay - Set 3. [Related pubchem assays (depositor defined):AID1777, AID1785]. The format is functional.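 Note: U2OS cells expressing DOR1 and beta-arrestin GFP stimulated with 100 nM SNC80; imaging of GFP-tagged beta-arrestin moving into spots after receptor activation.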
The target in another test is Mu-type opioid receptor (Homo sapiens, UniProt P35372). Briefly: SAR Analysis of Antagonists of the MOR Receptor using an Image-Based Assay - Set 3. [Related pubchem assays (depositor defined):AID1777, AID1785, AID1786, AID1966, AID2133, AID2136, AID2284, AID2285, AID2420]. The test is classed as functional.
For test [26], the target named is T8, Kappa-type opioid receptor (Homo sapiens, UniProt P41145). Kind of test: SAR analysis of small molecule antagonists of the kappa opioid receptor via a luminescent beta-arrestin assay - Set 4. [Related pubchem assays (depositor defined):AID1777, AID1778, AID1785, AID1786, AID1966, AID2133, AID2136, AID2285]. The test is classed as functional.
In test [27] the target is T8, Kappa-type opioid receptor. Briefly: SAR analysis of Antagonists of the Kappa Opioid Receptor (KOR) using an Image-Based Assay - Set 4. [Related pubchem assays (depositor defined):AID1777, AID1785]. The test is classed as functional.

Each structure is given as a SMILES string. The source made the active and inactive calls. Some results are limits rather than exact numbers.

The record followed here is ChEMBL document CHEMBL1201862, “PubChem BioAssay data set” (2004).

As a reminder, the EC50 is the concentration that produces a half-maximal response.
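Throughout, for IC50 Mean: confirmatory dose-response retesting of NadD inhibitor hits first found in an ultra-high-throughput screen.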

T8 sequence (P41145 whole entry): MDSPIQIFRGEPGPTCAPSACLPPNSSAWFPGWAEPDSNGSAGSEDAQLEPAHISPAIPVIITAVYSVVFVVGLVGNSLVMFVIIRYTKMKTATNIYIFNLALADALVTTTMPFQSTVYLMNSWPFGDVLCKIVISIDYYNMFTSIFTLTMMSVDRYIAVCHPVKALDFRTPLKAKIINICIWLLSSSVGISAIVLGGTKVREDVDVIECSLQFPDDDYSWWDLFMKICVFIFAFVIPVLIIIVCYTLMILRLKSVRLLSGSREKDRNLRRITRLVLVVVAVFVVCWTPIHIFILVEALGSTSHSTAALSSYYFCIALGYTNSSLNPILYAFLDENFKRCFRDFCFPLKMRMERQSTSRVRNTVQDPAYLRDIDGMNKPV
T1 sequence (P65502 whole entry): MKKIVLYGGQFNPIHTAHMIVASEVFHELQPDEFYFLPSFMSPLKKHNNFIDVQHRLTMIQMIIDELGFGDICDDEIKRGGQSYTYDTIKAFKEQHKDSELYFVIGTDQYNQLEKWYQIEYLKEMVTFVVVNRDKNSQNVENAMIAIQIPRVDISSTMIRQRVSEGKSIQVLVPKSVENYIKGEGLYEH
T5 sequence (Q9HC29 whole entry, the tested form may be a part): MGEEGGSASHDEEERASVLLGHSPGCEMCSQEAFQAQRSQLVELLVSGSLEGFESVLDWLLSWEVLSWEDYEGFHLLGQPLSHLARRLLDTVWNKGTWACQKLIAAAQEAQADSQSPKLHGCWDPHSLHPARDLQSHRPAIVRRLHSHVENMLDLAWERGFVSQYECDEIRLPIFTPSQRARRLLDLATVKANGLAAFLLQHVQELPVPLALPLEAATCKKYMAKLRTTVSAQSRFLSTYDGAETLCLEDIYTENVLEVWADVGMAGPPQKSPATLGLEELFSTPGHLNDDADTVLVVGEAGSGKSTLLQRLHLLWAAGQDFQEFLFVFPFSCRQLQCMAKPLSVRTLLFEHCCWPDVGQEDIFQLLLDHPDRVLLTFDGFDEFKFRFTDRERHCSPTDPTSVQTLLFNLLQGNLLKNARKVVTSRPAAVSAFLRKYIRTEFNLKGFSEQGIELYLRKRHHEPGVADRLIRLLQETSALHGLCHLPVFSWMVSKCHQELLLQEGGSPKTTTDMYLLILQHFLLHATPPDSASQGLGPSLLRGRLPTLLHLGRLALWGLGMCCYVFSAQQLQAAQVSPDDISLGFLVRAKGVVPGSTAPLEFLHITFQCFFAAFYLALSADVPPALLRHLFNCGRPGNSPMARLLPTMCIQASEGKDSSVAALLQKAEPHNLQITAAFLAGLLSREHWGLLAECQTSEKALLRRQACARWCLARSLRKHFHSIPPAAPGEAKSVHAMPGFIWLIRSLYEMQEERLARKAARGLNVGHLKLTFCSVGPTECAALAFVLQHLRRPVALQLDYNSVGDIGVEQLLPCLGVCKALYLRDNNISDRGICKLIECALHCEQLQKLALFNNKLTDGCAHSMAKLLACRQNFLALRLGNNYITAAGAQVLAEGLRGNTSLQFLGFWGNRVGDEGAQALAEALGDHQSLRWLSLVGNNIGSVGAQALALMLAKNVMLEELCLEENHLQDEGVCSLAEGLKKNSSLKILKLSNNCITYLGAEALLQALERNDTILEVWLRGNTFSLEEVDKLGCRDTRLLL
T4 sequence (Q9UBE0 whole entry): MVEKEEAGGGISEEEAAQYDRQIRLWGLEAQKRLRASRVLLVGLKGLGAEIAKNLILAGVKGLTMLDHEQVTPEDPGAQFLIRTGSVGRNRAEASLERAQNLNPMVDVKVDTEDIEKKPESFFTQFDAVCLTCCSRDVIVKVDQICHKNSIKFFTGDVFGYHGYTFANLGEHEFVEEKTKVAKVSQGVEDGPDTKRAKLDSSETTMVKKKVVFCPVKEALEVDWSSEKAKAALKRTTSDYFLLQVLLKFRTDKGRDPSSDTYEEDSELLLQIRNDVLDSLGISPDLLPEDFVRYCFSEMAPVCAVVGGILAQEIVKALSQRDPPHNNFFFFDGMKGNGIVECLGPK
T4 sequence (Q9UBT2 whole entry): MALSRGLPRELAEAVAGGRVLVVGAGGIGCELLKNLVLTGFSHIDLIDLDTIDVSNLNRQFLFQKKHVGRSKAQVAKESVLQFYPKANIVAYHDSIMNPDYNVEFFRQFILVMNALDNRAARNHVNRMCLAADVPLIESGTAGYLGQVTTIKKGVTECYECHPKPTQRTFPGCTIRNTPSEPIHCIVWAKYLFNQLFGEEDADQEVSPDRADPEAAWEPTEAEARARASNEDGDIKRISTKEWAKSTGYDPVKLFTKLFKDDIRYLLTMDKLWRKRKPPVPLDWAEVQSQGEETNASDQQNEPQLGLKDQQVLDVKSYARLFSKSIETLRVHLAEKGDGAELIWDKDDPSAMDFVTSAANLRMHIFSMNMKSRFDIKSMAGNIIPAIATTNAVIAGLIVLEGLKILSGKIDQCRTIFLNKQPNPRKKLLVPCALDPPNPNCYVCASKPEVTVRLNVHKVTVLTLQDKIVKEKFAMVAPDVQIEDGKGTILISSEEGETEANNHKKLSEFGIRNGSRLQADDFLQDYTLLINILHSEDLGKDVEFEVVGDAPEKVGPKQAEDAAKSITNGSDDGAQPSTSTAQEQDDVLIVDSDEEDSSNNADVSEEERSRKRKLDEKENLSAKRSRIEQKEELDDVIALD
Sequence of Delta-type opioid receptor (P41143 whole entry): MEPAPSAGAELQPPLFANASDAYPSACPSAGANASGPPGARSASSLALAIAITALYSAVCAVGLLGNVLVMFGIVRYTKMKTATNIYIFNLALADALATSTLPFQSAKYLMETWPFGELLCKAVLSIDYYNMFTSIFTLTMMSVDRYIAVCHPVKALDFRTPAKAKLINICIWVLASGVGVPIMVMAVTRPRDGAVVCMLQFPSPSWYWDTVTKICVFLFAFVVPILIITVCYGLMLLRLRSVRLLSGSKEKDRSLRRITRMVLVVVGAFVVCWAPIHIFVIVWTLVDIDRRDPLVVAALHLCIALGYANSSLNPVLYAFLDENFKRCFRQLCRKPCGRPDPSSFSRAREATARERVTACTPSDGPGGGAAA
Sequence of Potassium voltage-gated channel subfamily KQT member 2 (O88943 whole entry): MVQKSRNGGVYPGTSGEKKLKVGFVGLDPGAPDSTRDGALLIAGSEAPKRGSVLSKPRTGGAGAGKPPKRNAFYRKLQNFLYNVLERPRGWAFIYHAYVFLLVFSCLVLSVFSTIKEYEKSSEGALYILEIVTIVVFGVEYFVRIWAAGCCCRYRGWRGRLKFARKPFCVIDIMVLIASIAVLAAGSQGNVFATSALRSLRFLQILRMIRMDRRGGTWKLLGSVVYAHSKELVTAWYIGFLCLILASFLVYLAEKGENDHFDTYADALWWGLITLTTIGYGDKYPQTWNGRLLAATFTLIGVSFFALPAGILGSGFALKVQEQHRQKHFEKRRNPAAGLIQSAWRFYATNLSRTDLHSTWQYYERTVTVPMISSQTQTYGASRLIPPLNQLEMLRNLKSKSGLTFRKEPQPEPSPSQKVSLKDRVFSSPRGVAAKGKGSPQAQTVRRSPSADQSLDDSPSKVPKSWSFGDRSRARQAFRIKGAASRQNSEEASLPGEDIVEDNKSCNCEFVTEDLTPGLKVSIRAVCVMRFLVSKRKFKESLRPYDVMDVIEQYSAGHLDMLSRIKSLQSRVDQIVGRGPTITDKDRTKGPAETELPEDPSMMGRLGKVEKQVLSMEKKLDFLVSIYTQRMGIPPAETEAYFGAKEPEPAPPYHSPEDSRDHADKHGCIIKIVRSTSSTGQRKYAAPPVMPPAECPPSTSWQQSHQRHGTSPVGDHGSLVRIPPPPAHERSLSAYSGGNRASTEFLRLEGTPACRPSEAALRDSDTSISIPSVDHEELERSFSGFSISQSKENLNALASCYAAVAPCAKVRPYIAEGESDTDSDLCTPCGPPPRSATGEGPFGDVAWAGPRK
Sequence of Tumor necrosis factor (P01375 whole entry): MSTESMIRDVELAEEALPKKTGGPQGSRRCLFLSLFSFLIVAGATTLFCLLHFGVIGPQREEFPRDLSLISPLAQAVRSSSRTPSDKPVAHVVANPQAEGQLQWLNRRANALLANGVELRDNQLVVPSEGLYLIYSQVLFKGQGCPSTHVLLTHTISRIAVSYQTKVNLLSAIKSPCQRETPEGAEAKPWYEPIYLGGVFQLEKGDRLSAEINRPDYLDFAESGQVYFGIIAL
Sequence of X-box-binding protein 1 (P17861 whole entry): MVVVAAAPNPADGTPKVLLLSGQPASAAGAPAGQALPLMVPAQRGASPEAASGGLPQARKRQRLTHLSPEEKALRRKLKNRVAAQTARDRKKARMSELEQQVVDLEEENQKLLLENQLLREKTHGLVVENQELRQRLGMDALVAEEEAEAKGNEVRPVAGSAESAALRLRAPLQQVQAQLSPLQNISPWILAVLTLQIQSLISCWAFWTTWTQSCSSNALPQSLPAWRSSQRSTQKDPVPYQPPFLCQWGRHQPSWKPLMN
Sequence of Mu-type opioid receptor (P35372 whole entry): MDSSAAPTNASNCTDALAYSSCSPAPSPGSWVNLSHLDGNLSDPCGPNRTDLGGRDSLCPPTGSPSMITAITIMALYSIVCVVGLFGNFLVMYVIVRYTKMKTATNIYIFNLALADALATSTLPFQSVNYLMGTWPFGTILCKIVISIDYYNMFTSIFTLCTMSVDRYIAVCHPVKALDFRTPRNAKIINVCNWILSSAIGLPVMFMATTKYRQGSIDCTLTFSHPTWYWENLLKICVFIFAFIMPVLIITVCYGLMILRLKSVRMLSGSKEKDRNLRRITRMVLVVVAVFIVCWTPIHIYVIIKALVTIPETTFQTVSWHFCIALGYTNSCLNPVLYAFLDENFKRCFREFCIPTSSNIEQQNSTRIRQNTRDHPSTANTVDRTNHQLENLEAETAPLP
Sequence of DNA damage-inducible transcript 3 protein (P35639 whole entry): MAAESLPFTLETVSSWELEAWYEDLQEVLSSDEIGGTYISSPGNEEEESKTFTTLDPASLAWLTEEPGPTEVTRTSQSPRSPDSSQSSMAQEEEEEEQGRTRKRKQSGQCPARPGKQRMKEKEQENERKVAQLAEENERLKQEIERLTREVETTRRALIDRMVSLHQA

On to `COC1C(OC(=O)c2ccc(C)[nH]2)C(O)C(Oc2ccc3c(O)c(NC(=O)c4ccc(O)c(CC=C(C)C)c4)c(=O)oc3c2Cl)OC1(C)C` (configuration not stated), for which the IC50 on ELAV-like protein 1 is 41.9 µM (active); in test [1] it was 38.4 µM (active); in test [2] it was 7.01 µM (active); in [3] it was 2.1 µM (active); in test [4], 13 µM (active).
For `O=C(Nc1cccnc1)Nc1cccc(F)c1`, the EC50 in the test “cells [5]” was > 29.9 µM (inactive); in test [6] it was 6.28 µM (active); in [9], 0.675 µM (active). Also, the values for the IC50 (in the test “cells [7]”; in test [8]) were > 29.9 µM (inactive) and 5.05 µM (active), respectively.
`N=c1c(S(=O)(=O)c2ccc(Cl)cc2)cc2c(=O)n3ccccc3nc2n1Cc1ccco1`: in [10], the EC50 is > 260 µM (inactive). For the same molecule, the IC50 on SUMO-activating enzyme [11] was 20.9 µM (active); at SUMO-activating enzyme [12], 4.47 µM (active).
Regarding `Cc1cc(C)c2nc(-c3ccccn3)cc(C(=O)Nc3cc(C)on3)c2c1`, in [13], the “Absolute IC50 (CHOP)” value was 10 µM. Also, at X-box-binding protein 1, the “Absolute IC50 (XBP1)” value was 10 µM.
Regarding `CCCCCCCn1c(=O)c(C(=O)Nc2cnccn2)c(O)c2ccccc21`, the IC50 in the test with HEK293 [14] is 6.85 µM (active); in the test with HEK293 [17], > 20 µM (inactive); in the test on HEK293 [19] it was > 20 µM (inactive); in test [20], 8.05 µM (active); in test [21], 5.6 µM (active); on Tumor necrosis factor, 3.18 µM (active). Besides, the IC50 in the test on HEK293 [22] and with HEK293 [23] was > 20 µM (inactive) each time. Further, the EC50 was 6.65 µM (active) with Streptococcus, 2.88 µM (active) in test [15], 7.83 µM (active) in test [16] and 6.35 µM (active) in the test with HEK293 [18].
Regarding `CCCNC(=O)Nc1ccc2nc(-c3ccco3)c(-c3ccco3)nc2c1`, in test [24], the IC50 was 1.01 µM (active).
`CCCc1ccc(S(=O)(=O)NCc2ccc(C(=O)NCCN(Cc3ccccc3)C(C)C)cc2)cc1`: the IC50 in test [25] was > 32 µM (inactive); at Mu-type opioid receptor it was > 32 µM (inactive); in test [26] it was 2 µM (active); in test [27] it was 2.25 µM (active).
